Assay results from PubChem BioAssay AID248 (DTP/NCI, 2004).
“And” between values parts separate entries of the source, which are not always exact repeats. Identical values can stand only once. Inconclusive results and toxic doses are left out. No stated cut-off is given here; in the data, active means T/C of 150% or more; inactive means T/C below 125%.

Test system: L1210 leukemia ip in BDF1 mice, survival T/C
Test: NCI In Vivo Anticancer Drug Screen. Data for tumor model L1210 Leukemia (intraperitoneal) in B6D2F1 (BDF1) mice
Settings: endpoint: mean survival time, higher = longer survival
Summary of the method: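 Read-out is survival time, reported as the treated-group measurement over the vehicle-control measurement.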

[1] = dose: 100.0 mg/kg/injection, schedule: Q04DX003 (ip), vehicle: Klucel (hydroxypropylcellulose) (HPC)
[2] = dose: 50.0 mg/kg/injection, schedule: Q01DX001 (ip), vehicle: saline
[3] = dose: 100.0 mg/kg/injection, schedule: Q01DX001 (ip), vehicle: saline
[4] = dose: 100.0 mg/kg/injection, schedule: Q04DX003 (ip), vehicle: saline
[5] = dose: 200.0 mg/kg/injection, schedule: Q01DX001 (ip), vehicle: saline
[6] = dose: 400.0 mg/kg/injection, schedule: Q01DX001 (ip), vehicle: saline
[7] = dose: 200.0 mg/kg/injection, schedule: Q04DX003 (ip), vehicle: saline
[8] = dose: 100.0 mg/kg/injection, schedule: Q04DX003 (ip), vehicle: saline with Tween-80
[9] = dose: 100.0 mg/kg/injection, schedule: Q01DX001 (ip), vehicle: Klucel (hydroxypropylcellulose) (HPC)

Measured: T/C

C=CCNC(=S)Nc1cccc([N+](=O)[O-])c1
inactive: dose: 50.0 mg/kg/injection, schedule: Q01DX001 (ip), vehicle: carboxymethylcellulose (CMC) 111 % of control | dose: 100.0 mg/kg/injection, schedule: Q01DX001 (ip), vehicle: carboxymethylcellulose (CMC) 94 % of control | dose: 200.0 mg/kg/injection, schedule: Q01DX001 (ip), vehicle: carboxymethylcellulose (CMC) 94 % of control | dose: 400.0 mg/kg/injection, schedule: Q01DX001 (ip), vehicle: carboxymethylcellulose (CMC) 100 % of control

CCC[CH2][Pb]([Cl])([CH2]CCC)[CH2]CCC
inactive: dose: 6.25 mg/kg/injection, schedule: Q01DX009 (ip), vehicle: saline with Tween-80 90 % of control

COc1ccccc1CN1CCCN(Cc2ccccc2OC)C1c1ccc(C2N(Cc3ccccc3OC)CCCN2Cc2ccccc2OC)cc1
inactive: dose: 100.0 mg/kg/injection, schedule: Q01DX001 (ip), vehicle: acetone 102 % of control | dose: 200.0 mg/kg/injection, schedule: Q01DX001 (ip), vehicle: acetone 96 % of control | dose: 400.0 mg/kg/injection, schedule: Q01DX001 (ip), vehicle: acetone 96 % of control

CNc1nc(SCc2ccc(F)cc2)ncc1C
inactive: dose: 25.0 mg/kg/injection, schedule: Q01DX Z (ip), vehicle: methylcellulose (MC) 96 % of control | dose: 50.0 mg/kg/injection, schedule: Q01DX Z (ip), vehicle: methylcellulose (MC) 103 % of control

c1ccc2c(c1)ccc1[nH]c3ccc4ccccc4c3c12
inactive: dose: 12.5 mg/kg/injection, schedule: Q01DX009 (ip), vehicle: Klucel (hydroxypropylcellulose) (HPC) 109 % of control | dose: 25.0 mg/kg/injection, schedule: Q01DX009 (ip), vehicle: Klucel (hydroxypropylcellulose) (HPC) 93 % of control | dose: 25.0 mg/kg/injection, schedule: Q04DX003 (ip), vehicle: Klucel (hydroxypropylcellulose) (HPC) 107 % of control | dose: 50.0 mg/kg/injection, schedule: Q04DX003 (ip), vehicle: Klucel (hydroxypropylcellulose) (HPC) 86 % of control | [1] 97 % of control

CC/C(=C(\CC)c1ccc(OCC(=O)OCCNCCCl)cc1)c1ccc(OCC(=O)OCCNCCCl)cc1
inactive: dose: 6.25 mg/kg/injection, schedule: Q04DX002 (ip), vehicle: saline 94 % of control | dose: 12.5 mg/kg/injection, schedule: Q04DX002 (ip), vehicle: saline 97 % of control | dose: 25.0 mg/kg/injection, schedule: Q04DX002 (ip), vehicle: saline 94 % of control

Oc1c(CN2CCCC2)cc(Nc2nccc(/C=C/c3ccc(Cl)cc3)n2)cc1CN1CCCC1
inactive: dose: 25.0 mg/kg/injection, schedule: Q04DX003 (ip), vehicle: saline 96 % of control | [2] 96 % of control | dose: 50.0 mg/kg/injection, schedule: Q04DX003 (ip), vehicle: saline 96 % of control | [3] 93 % of control | [4] 90 % of control

Cc1ccc(C(=O)Cc2ccc(C#N)cc2)cc1
inactive: [2] 98 % of control | [3] 96 % of control | [5] 104 % of control | [6] 98 % of control

COc1ccc(C(=O)Nc2ccc(F)cc2)cc1
inactive: dose: 100.0 mg/kg/injection, schedule: Q01DX009 (ip), vehicle: carboxymethylcellulose (CMC) 100 % of control and 105 % of control | dose: 100.0 mg/kg/injection, schedule: Q04DX002 (ip), vehicle: Klucel (hydroxypropylcellulose) (HPC) 115 % of control | dose: 100.0 mg/kg/injection, schedule: Q04DX002 (ip), vehicle: carboxymethylcellulose (CMC) 103 % of control | dose: 100.0 mg/kg/injection, schedule: Q04DX003 (ip), vehicle: carboxymethylcellulose (CMC) 101 % of control | dose: 200.0 mg/kg/injection, schedule: Q01DX009 (ip), vehicle: carboxymethylcellulose (CMC) 94 % of control and 89 % of control | dose: 200.0 mg/kg/injection, schedule: Q04DX002 (ip), vehicle: Klucel (hydroxypropylcellulose) (HPC) 102 % of control | dose: 200.0 mg/kg/injection, schedule: Q04DX002 (ip), vehicle: carboxymethylcellulose (CMC) 93 % of control and 95 % of control | dose: 200.0 mg/kg/injection, schedule: Q04DX003 (ip), vehicle: carboxymethylcellulose (CMC) 106 % of control | dose: 400.0 mg/kg/injection, schedule: Q01DX009 (ip), vehicle: carboxymethylcellulose (CMC) 87 % of control | dose: 400.0 mg/kg/injection, schedule: Q04DX002 (ip), vehicle: Klucel (hydroxypropylcellulose) (HPC) 108 % of control | dose: 400.0 mg/kg/injection, schedule: Q04DX002 (ip), vehicle: carboxymethylcellulose (CMC) 93 % of control and 100 % of control | dose: 400.0 mg/kg/injection, schedule: Q04DX003 (ip), vehicle: carboxymethylcellulose (CMC) 102 % of control

CC1(CO)CCCC2(C)c3cc(O)ccc3CCC12 (stereo unspecified)
inactive: dose: 100.0 mg/kg/injection, schedule: Q01DX009 (ip), vehicle: acetone 90 % of control | [4] 97 % of control | [7] 97 % of control | dose: 400.0 mg/kg/injection, schedule: Q04DX003 (ip), vehicle: saline 97 % of control

Nc1cccc2cc3ccccc3[n+]([O-])c12
inactive: dose: 100.0 mg/kg/injection, schedule: Q01DX009 (ip), vehicle: saline with Tween-80 103 % of control | dose: 200.0 mg/kg/injection, schedule: Q01DX009 (ip), vehicle: saline with Tween-80 103 % of control | dose: 400.0 mg/kg/injection, schedule: Q01DX009 (ip), vehicle: saline with Tween-80 93 % of control

CCCCOP(=O)(/C=C/c1cccs1)OCCCC
inactive: [8] 100 % of control | dose: 200.0 mg/kg/injection, schedule: Q04DX003 (ip), vehicle: saline with Tween-80 94 % of control

CC(C)C(C#N)(CCCCN1CCCC1)c1cccc2ccccc12 (stereo unspecified)
inactive: [8] 95 % of control

O=C1/C(=C/c2ccco2)CC2CCCCC12 (stereo unspecified)
inactive: dose: 50.0 mg/kg/injection, schedule: Q01DX009 (ip), vehicle: saline 95 % of control | dose: 100.0 mg/kg/injection, schedule: Q01DX009 (ip), vehicle: saline 102 % of control | [4] 88 % of control | dose: 200.0 mg/kg/injection, schedule: Q01DX009 (ip), vehicle: saline 90 % of control | [7] 102 % of control

CC(NC(=O)OCc1ccccc1)C(=O)NC1C(CO)OC(n2cnc3c(N)ncnc32)C1O (stereo unspecified)
inactive: [3] 94 % of control | [5] 103 % of control | [6] 100 % of control

COC(=O)CCC(=O)NCC(=O)OCc1ccccc1
inactive: dose: 100.0 mg/kg/injection, schedule: Q01DX001 (ip), vehicle: water 105 % of control | dose: 100.0 mg/kg/injection, schedule: Q04DX003 (ip), vehicle: water 100 % of control | dose: 200.0 mg/kg/injection, schedule: Q01DX001 (ip), vehicle: water 107 % of control | dose: 200.0 mg/kg/injection, schedule: Q04DX003 (ip), vehicle: water 96 % of control | dose: 400.0 mg/kg/injection, schedule: Q01DX001 (ip), vehicle: water 105 % of control | dose: 400.0 mg/kg/injection, schedule: Q04DX003 (ip), vehicle: water 90 % of control

Cc1nc(N)[nH]c(=O)c1CCCNC(=O)c1cccc([N+](=O)[O-])c1
inactive: dose: 50.0 mg/kg/injection, schedule: Q01DX001 (ip), vehicle: Klucel (hydroxypropylcellulose) (HPC) 108 % of control | [9] 114 % of control

CC(=O)OCc1cc(=O)n(C)c2c3c4c(cc12)c(C)cc(=O)n4CO3
inactive: [9] 109 % of control | [1] 104 % of control | dose: 200.0 mg/kg/injection, schedule: Q01DX001 (ip), vehicle: Klucel (hydroxypropylcellulose) (HPC) 114 % of control | dose: 200.0 mg/kg/injection, schedule: Q04DX003 (ip), vehicle: Klucel (hydroxypropylcellulose) (HPC) 117 % of control | dose: 400.0 mg/kg/injection, schedule: Q01DX001 (ip), vehicle: Klucel (hydroxypropylcellulose) (HPC) 118 % of control | dose: 400.0 mg/kg/injection, schedule: Q04DX003 (ip), vehicle: Klucel (hydroxypropylcellulose) (HPC) 123 % of control
